Columns and labels:
BTK = BTK (Homo sapiens, UniProt Q06187); assay: Degradation of BTK protein in Namalwa cells (Western blot; DC50, Dmax); settings: for DC50: read-out: DC50 (BTK degradation), concentration giving 50% reduction of BTK expression level, cell line not given; for Dmax: read-out: Dmax (BTK degradation)
JeKo-1 cells = assay: Antiproliferative effect, MTS cell viability assay, JeKo-1 cells; assay type: cell-based; settings: Homo sapiens; JeKo-1 mantle cell lymphoma cells; read-out: IC50 (anti-proliferation) JeKO-1 cells
Outline: (§1)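 Tested at six concentrations (0 to 10 μM in tenfold steps), 72 h; viability by MTS, A490.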

Mino cells = assay: Antiproliferative effect, MTS cell viability assay, Mino cells; assay type: cell-based; settings: Homo sapiens, MINO, Mino mantle cell lymphoma cells; read-out: IC50 (anti-proliferation) Mino cells
Outline: as §1

BTK, sequence (Q06187 whole entry): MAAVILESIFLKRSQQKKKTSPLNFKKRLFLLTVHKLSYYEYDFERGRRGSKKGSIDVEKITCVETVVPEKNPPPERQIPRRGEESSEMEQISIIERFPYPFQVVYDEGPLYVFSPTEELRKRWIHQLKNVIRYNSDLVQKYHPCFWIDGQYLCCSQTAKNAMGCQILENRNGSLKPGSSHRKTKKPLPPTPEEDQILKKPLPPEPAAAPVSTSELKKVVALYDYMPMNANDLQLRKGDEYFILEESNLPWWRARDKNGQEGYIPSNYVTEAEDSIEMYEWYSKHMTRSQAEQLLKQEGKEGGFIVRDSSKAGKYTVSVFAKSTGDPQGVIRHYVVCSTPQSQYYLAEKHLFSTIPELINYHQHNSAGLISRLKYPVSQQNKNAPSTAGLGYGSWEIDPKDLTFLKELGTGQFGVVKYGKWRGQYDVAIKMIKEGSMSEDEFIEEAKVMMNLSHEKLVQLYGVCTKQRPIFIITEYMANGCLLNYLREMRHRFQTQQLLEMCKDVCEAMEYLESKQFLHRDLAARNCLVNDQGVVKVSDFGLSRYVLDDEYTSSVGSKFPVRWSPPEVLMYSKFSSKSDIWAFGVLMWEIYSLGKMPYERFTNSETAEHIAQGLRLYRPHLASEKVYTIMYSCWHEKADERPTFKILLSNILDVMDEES

Row | SMILES | DC50 (BTK) | Dmax (BTK) | IC50 (JeKo-1 cells) | IC50 (Mino cells) | degradation of BTK protein (BTK; Namalwa B lymphocyte cells, various concentrations, 24 hours, Western blot)
1 | Nc1ncnc2c1c(-c1ccc(Oc3ccccc3)cc1)nn2C1CCN(CCN2CCC(Sc3ccc4c(c3)C(=O)N(C3CCC(=O)NC3=O)C4=O)CC2)CC1 (centres unmarked) [Compound 471, 5-((1-(2-(4-(4-amino-3-(4-phenoxyphenyl)-1H-pyrazolo[3,4-d]pyrimidin-1-yl)piperidin-1-yl)ethyl)piperidin-4-yl)thio)-2-(2,6-dioxopiperidin-3-yl)isoindoline-1,3-dione] | 10 to 50 nM | > 75% | 1000 to 10000 nM | 1000 to 10000 nM | –
2 | Nc1ncnc2c1c(-c1ccc(Oc3ccccc3)cc1)nn2C1CCN(CCN2CCC(Sc3ccc4c(c3)CN(C3CCC(=O)NC3=O)C4=O)CC2)CC1 (centres unmarked) [Compound 472, 3-(5-((1-(2-(4-(4-amino-3-(4-phenoxyphenyl)-1H-pyrazolo[3,4-d]pyrimidin-1-yl)piperidin-1-yl)ethyl)piperidin-4-yl)thio)-1-oxoisoindolin-2-yl)piperidine-2,6-dione] | 10 to 50 nM | > 75% | 1000 to 10000 nM | 1000 to 10000 nM | –
3 | Nc1ncnc2c1c(-c1ccc(Oc3ccccc3)cc1)nn2C1CCN(CCN2CCC(CSc3ccc4c(c3)C(=O)N(C3CCC(=O)NC3=O)C4=O)C2)CC1 (centres unmarked) [Compound 473, 5-(((1-(2-(4-(4-amino-3-(4-phenoxyphenyl)-1H-pyrazolo[3,4-d]pyrimidin-1-yl)piperidin-1-yl)ethyl)pyrrolidin-3-yl)methyl)thio)-2-(2,6-dioxopiperidin-3-yl)isoindoline-1,3-dione] | 10 to 50 nM | > 90% | 1000 to 10000 nM | 1000 to 10000 nM | –
4 | Nc1ncnc2c1c(-c1ccc(Oc3ccccc3)cc1)nn2C1CCN(CCN2CCC(CSc3ccc4c(c3)CN(C3CCC(=O)NC3=O)C4=O)C2)CC1 (centres unmarked) [Compound 474, 3-(5-(((1-(2-(4-(4-amino-3-(4-phenoxyphenyl)-1H-pyrazolo[3,4-d]pyrimidin-1-yl)piperidin-1-yl)ethyl)pyrrolidin-3-yl)methyl)thio)-1-oxoisoindolin-2-yl)piperidine-2,6-dione] | < 10 nM | > 90% | 1000 to 10000 nM | 1000 to 10000 nM | –
5 | Nc1ncnc2c1c(-c1ccc(Oc3ccccc3)cc1)nn2[C@@H]1CCCN(C2CCN(C(=O)N3CC(N4CCN(c5ccc6c(c5)C(=O)N(C5CCC(=O)NC5=O)C6=O)CC4)C3)CC2)C1 (stereo partly drawn) [Compound 475, 5-(4-(1-((R)-3-(4-amino-3-(4-phenoxyphenyl)-1H-pyrazolo[3,4-d]pyrimidin-1-yl)-[1,4′-bipiperidine]-1′-carbonyl)azetidin-3-yl)piperazin-1-yl)-2-(2,6-dioxopiperidin-3-yl)isoindoline-1,3-dione] | < 10 nM | > 90% | 1000 to 10000 nM | < 1000 nM | –
6 | Nc1ncnc2c1c(-c1ccc(Oc3ccccc3)cc1)nn2[C@@H]1CCCN(C2CCN(C(=O)N3CC(N4CCN(c5ccc6c(c5)CN(C5CCC(=O)NC5=O)C6=O)CC4)C3)CC2)C1 (stereo partly drawn) [Compound 476, 3-(5-(4-(1-((R)-3-(4-amino-3-(4-phenoxyphenyl)-1H-pyrazolo[3,4-d]pyrimidin-1-yl)-[1,4′-bipiperidine]-1′-carbonyl)azetidin-3-yl)piperazin-1-yl)-1-oxoisoindolin-2-yl)piperidine-2,6-dione] | < 10 nM | > 90% | < 1000 nM | < 1000 nM | dose-dependent degradation
7 | Nc1ncnc2c1c(-c1ccc(Oc3ccccc3)cc1)nn2[C@@H]1CCCN(C2CN(C(=O)N3CC(N4CCN(c5ccc6c(c5)C(=O)N(C5CCC(=O)NC5=O)C6=O)CC4)C3)C2)C1 (stereo partly drawn) [Compound 479, 5-(4-(1-(3-((R)-3-(4-amino-3-(4-phenoxyphenyl)-1H-pyrazolo[3,4-d]pyrimidin-1-yl)piperidin-1-yl)azetidin-1-carbonyl)azetidin-3-yl)piperazin-1-yl)-2-(2,6-dioxopiperidin-3-yl)isoindoline-1,3-dione] | < 10 nM | > 90% | 1000 to 10000 nM | 1000 to 10000 nM | –

From US12139492B2 (Endotarget Inc., priority 2021, dated 2024)
